Test results: article PMC12718261, “New Fluorescent Synthetic Retinoids as Potential RAR Agonists with Anticancer, Molecular Docking and ADME Assessments” (Journal of Fluorescence, 2025)
Where “and” joins values, the source holds several entries; their conditions need not be identical. Identical values can stand only once.

What was measured:
Assay type in all cases: cell-based
[1] = tested on: WI-38 normal human fibroblast cells; test: MTT cytotoxicity assay on normal fibroblasts; settings: WI-38 normal fibroblast cells, 24 h, mean ± SEM
Protocol: (§1) The antiproliferation and cytotoxicity were assessed using 3-(4,5-dimethylthiazol-2-yl)−2,5-diphenyltetrazolium bromide (MTT, Serva) colorimetric assay. All tested cancer cell lines were seeded at a density of 20,000 cells per well in 96-well plates and allowed to adhere overnight. The attached cells were treated with five serial dilutions (100, 50, 5, 0.5, and 0.1 μM) in triplicate. These concentrations were prepared by diluting the stock solutions with serum-free culture media. The negative control cells were those treated with 0.1% DMSO solvent alone. The treated cells were handled in reduced light and maintained under standard culture growth conditions for 24 h. After the incubation period, MTT powder was prepared as a stock solution (5 mg/mL), and 20 μL of the MTT working reagent (final concentration 0.5 mg/mL) was added to each well. This was followed by incubation with MTT reagent for 4 h in a humidified atmosphere (37 °C, 5% CO2) with subsequent addition of 150 μL of DMSO solubilizing solvent and incubation for 20 min. The absorbance of solubilized violet formazan crystals was measured at 570 nm with a Biotek 800 TS microplate reader. IC50 was calculated as the concentration of retinoid that produced 50% cell growth inhibition. For cytotoxicity assessment, WI-38 normal human fibroblast cells were used for the calculation of SI, which is the ratio of IC50 retinoid (WI-38)/IC50 retinoid (cancer cell line).

[2] = tested on: calcium-independent ATPases in Caco-2 cells; test: Calcium-independent ATPase activity, malachite green colorimetric; settings: Caco-2, IC50 dose, 24 h; 0.1% DMSO control normalized to 100%
Protocol: (§2) The total activity of ATPase and calcium-independent ATPase activity was quantified colorimetrically as described by our previous protocol. […] The inorganic phosphate (Pi) liberated after the hydrolysis of ATP by ATPase enzymes was complexed into a colored product in one step after the addition of a mixed reagent containing malachite green, ammonium molybdate, and polyvinyl alcohol (2:1:1). The intensity of absorbance at 630 nm was measured using the BioTek 800 TS absorbance plate reader (USA) and was directly proportional to the quantity of liberated Pi. In order to eliminate any color due to the non-enzymatic hydrolysis of ATP, control reactions were made using only ATP in the reaction buffer, and the absorbance intensity was then subtracted from the readings of the samples and standards.

[3] = tested on: Caco-2 cancer cells; test: Cell cycle assay PI staining flow cytometry; settings: Caco-2, IC50 dose, 24 h
Protocol: The standard protocol used in HSBR was performed. […] Cells were concentrated at 1500 xg and suspended in 50 μg/ml propidium iodide (PI) staining solution and 20 µg/ml RNaseA to identify cells with a sub-G1 DNA content. Cytoflex flow cytometer (Beckman Coulter, USA) was used, and CytExpert software (version 2.4.0.28) was employed for data analysis. The gating strategy used to eliminate doublets depends on plotting the population against a 2D contour plot in four quadrants, referred to as Q1(LL), Q2 (LR), Q3 (UL), and Q4 (UR), that illustrates the spread of the Annexin-FITC-H core cell population against PI PE-H.

[4] = tested on: Caspase-3 gene in Caco-2 cells; test: Gene expression RT-qPCR; settings: Caco-2, IC50 dose, 24 h, relative to 0.1% DMSO, normalized to GAPDH
Protocol: (§3) The gene expression analysis was performed using real-time quantitative PCR (RT-qPCR), as previously documented. After incubation, cells were harvested, and total RNA was extracted using the Favor-PrepTM Blood/Cultured Cell Total RNA Purification Mini kit (Favorgen Biotech Corp., Ping-Tung, Taiwan). The purified RNA was then reverse transcribed into the first-strand cDNA using the Revert Aid First-Strand cDNA Synthesis Kit (Thermo Scientific, Waltham, MA, USA). All qPCR reactions were carried out using the […] SYBR® Green qPCR Kit (Willowfort, Nottingham, UK). Differential gene expression was performed using the 2ˆ^−ΔΔCT method utilizing GAPDH as a reference gene.

[5] = tested on: RAR-γ gene in Caco-2 cells; test: Gene expression RT-qPCR; settings: Caco-2, IC50 dose, 24 h, relative to 0.1% DMSO, normalized to GAPDH
Protocol: as §3

[6] = tested on: CRABPII gene in Caco-2 cells; test: Gene expression RT-qPCR; settings: Caco-2, IC50 dose, 24 h, relative to 0.1% DMSO, normalized to GAPDH
Protocol: as §3

[7] = tested on: CRABPI gene in Caco-2 cells; test: Gene expression RT-qPCR; settings: Caco-2, IC50 dose, 24 h, relative to 0.1% DMSO, normalized to GAPDH
Protocol: as §3

[8] = tested on: Cyt-C gene in Caco-2 cells; test: Gene expression RT-qPCR; settings: Caco-2, IC50 dose, 24 h, relative to 0.1% DMSO, normalized to GAPDH
Protocol: as §3

[9] = tested on: RAR-β gene in Caco-2 cells; test: Gene expression RT-qPCR; settings: Caco-2, IC50 dose, 24 h, relative to 0.1% DMSO, normalized to GAPDH
Protocol: The gene expression analysis was performed using real-time quantitative PCR (RT-qPCR), as previously documented [38]. After incubation, cells were harvested, and total RNA was extracted using the Favor-PrepTM Blood/Cultured Cell Total RNA Purification Mini kit (Favorgen Biotech Corp., Ping-Tung, Taiwan). The purified RNA was then reverse transcribed into the first-strand cDNA using the Revert Aid First-Strand cDNA Synthesis Kit (Thermo Scientific, Waltham, MA, USA). […] SYBR® Green qPCR Kit (Willowfort, Nottingham, UK). Differential gene expression was performed using the 2ˆ^−ΔΔCT method utilizing GAPDH as a reference gene [39].

[10] = tested on: Caco-2 cancer cells; test: Apoptosis assay Annexin V/PI flow cytometry; settings: Caco-2, IC50 dose, 24 h, AV/PI
Protocol: The standard protocol used in HSBR was performed. […] Cells were rinsed with 1 mL of binding buffer; the cells were again suspended in phosphate-buffered saline (PBS) (Lonza). 100 µL of cell suspension was incubated with 1 µL of FITC-labeled Annexin-V and 5 µL of PI for 15 min at 4 °C in the dark. The suspension was then mixed with 400 µL of ice-cold binding buffer, and each sample's apoptotic cells were analyzed using a Cytoflex flow cytometer (Beckman Coulter, USA), and CytExpert software (version 2.4.0.28) was employed for data analysis.

[11] = tested on: HCT-116; test: MTT anti-proliferative assay; settings: Homo sapiens; HCT-116, MTT, 24 h, mean ± SEM
Protocol: as §1

[12] = tested on: HepG-2; test: MTT anti-proliferative assay; settings: Homo sapiens, HepG2; HepG-2, MTT, 24 h, mean ± SEM
Protocol: as §1

[13] = tested on: MCF-7; test: MTT anti-proliferative assay; settings: Homo sapiens, MCF7; MCF-7, MTT, 24 h, mean ± SEM
Protocol: as §1

[14] = tested on: MDA-MB231; test: MTT anti-proliferative assay; settings: Homo sapiens, MDA-MB-231, 24 h, mean ± SEM
Protocol: as §1

[15] = tested on: PC-3; test: MTT anti-proliferative assay; settings: Homo sapiens; PC-3, MTT, 24 h, mean ± SEM
Protocol: as §1

[16] = tested on: Caco-2; test: MTT anti-proliferative assay; settings: Homo sapiens; Caco-2, MTT, 24 h, mean ± SEM
Protocol: as §1

[17] = tested on: total ATPase in Caco-2 cells; test: Total ATPase activity, malachite green colorimetric; settings: Caco-2, IC50 dose, 24 h; 0.1% DMSO control normalized to 100%
Protocol: as §2

[18] = tested on: IL-10 in Caco-2 cells; test: Intracellular IL-10 ELISA; settings: Caco-2, IC50 dose, 24 h, vs DMSO control
Protocol: For IL-10. Moreover, IL-6 measurements and cell pellets were lysed using RIPA buffer, and the total lysate was collected. The total protein was estimated to use commercially available ELISA kits as per the manufacturer’s instructions. ELISA plates were coated and used for analysis according to the previously used protocol using capture antibody (IL-6, Cat. No.: RAB0307 [57] and IL-10, Cat. No.: RAB1060 [58]), followed by blocking using 5% BSA in PBS-Tween buffer for 1 h. After incubating with samples for 2 h, a secondary […] antibody was added and kept for incubation for 2 h. Streptavidin-HRP reagent was then added to the plates, followed by the addition of TMB solution. Finally, the reaction was stopped using 2 N H2SO4, and the color was measured using the BioTek 800 TS absorbance plate reader (USA) at 450 nm wavelengths, and the protein was quantified.

[19] = tested on: different cancer cell lines; test: MTT anti-proliferative assay, whole panel statements; settings: 24 h, read-out: IC50 across different cancer cell lines
Protocol: as §1, with “For cytotoxicity assessment, WI-38 normal human fibroblast cells were used for the calculation of SI, which is the ratio of IC50 retinoid (WI-38)/IC50 retinoid (cancer cell line).” left out

[20] = tested on: RAR-α, RAR-β, RAR-γ proteins in Caco-2 cells; test: Western blotting of RAR proteins; settings: Caco-2, IC50 dose, 24 h, normalized to β-actin
Protocol: Using the previously outlined protocol, the western blot technique was used to determine the expression of RAR-α (Cat. No. E6Z6 K, cell signaling, USA), RAR-β (Cat. No. PP-H4338-00, R&D systems, USA) and RAR- γ (Cat. No. D3 A4, cell signaling, USA) in Caco-2 cells. […] Following incubation, floating adhered cells were separated and lysed. The Caco-2 cell lysate was immediately collected, subjected to sonication, and centrifuged for 15 min at 12,000 × g. The total soluble protein content was measured colorimetrically using the PierceTM 660 nm Assay (Thermo Scientific, Waltham, MA, USA) after the resultant supernatant was separated. The Gel documentation system (Geldoc-it, UVP, England) was applied for data analysis using Totallab analysis software (Ver.1.0.1) (ww.totallab.com).

Compound	IC50 [1]	ca+2-independent ATPase activity [2]	% G0-G1 [3]	% G2M [3]	% S [3]	% SubG0-G1 [3]	caspase-3 gene expression fold change [4]	RAR-γ gene expression fold change [5]	Cyt-C gene expression fold change [8]	% Early apoptotic cells (LR) [10]	% Late apoptotic cells (UL) [10]	% Necrotic cells (UR) [10]	% Viable cells (LL) [10]	IC50 [11]	IC50 [12]	IC50 [13]	IC50 [14]	IC50 [15]	IC50 [16]	total ATPase activity [17]	further results
CC1=C(/C=C/C(C)=C/C=C/C(C)=C/C(=O)O)C(C)(C)CCC1 [ATRA, all-trans-retinoic acid, reference compound]	46.9 ± 2.8 µM	39.4%	17.37 ± 6.1%	3.05 ± 0.7%	5.39 ± 1.4%	74.63 ± 5.8 %	1.6 ± 0.1 fold	4.1 ± 0.2 fold	7.7 ± 0.3 fold	1.20 ± 0.1%	0.03%	98.74% and 98.74 ± 8.7 %	0.02%	38.8 ± 0.9 µM	16 ± 1.3 µM	4.93 ± 0.4 µM	10400 ± 200 nM	2.21 ± 0.1 µM	11.4 ± 0.3 µM	42.2%	CRABPII gene expression fold change [6]: no effect; CRABPI gene expression fold change [7]: 1.2 fold; RAR-β gene expression fold change [9]: 35.3 ± 1.6 fold
COC(=O)c1ccc2cc(-c3ccc4c(c3)CCCN4)ccc2c1 [Compound 3a, Methyl 6-(1,2,3,4-tetrahydroquinolin-6-yl)−2-naphthoate]	39.2 ± 4.7 µM	40.0%	23.90 ± 8.4%	2.41 ± 0.3%	4.13 ± 1.2%	70.02% and 70.02 ± 4.7 %	8.5 ± 0.4 fold	4.5 ± 0.2 fold	did not show any overexpression	47.37 ± 3.9 %	0.30%	51.38 ± 3.6 %	0.95%	10.2 ± 3.8 µM	6.37 ± 1 µM	13.8 ± 2.4 µM	2330 ± 600 nM	18.9 ± 4 µM	9.58 ± 1.1 µM	43.9%	CRABPI gene expression fold change [7]: 2.4 ± 0.1 fold; intracellular IL-10 level change [18]: additional significant reduction
COC(=O)c1ccc2cc(-c3ccc4c(c3)CCCO4)ccc2c1 [Compound 3b, Methyl 6-(chroman-6-yl)−2-naphthoate]	29.2 ± 2.1 µM	36.2%	19.65 ± 2.7%	1.74 ± 0.1%	3.31 ± 1.1%	75.62% and 75.62 ± 7.4 %	did not show any significant increase	2.4 ± 0.1 fold	did not show any overexpression	60.06 ± 5.4 %	0.49%	37.78% and 37.78 ± 2.7 %	1.68 ± 0.1%	52.9 ± 4.3 µM	12 ± 2.6 µM	12.2 ± 3.2 µM	2090 ± 100 nM	4.6 ± 1.7 µM	14.4 ± 0.36 µM	41%	IC50 [19]: ≤ 50 µM; CRABPI gene expression fold change [7]: 9.9 ± 0.4 fold
O=C(O)c1ccc2cc(-c3ccc4c(c3)CCCN4)ccc2c1 [Compound 4a, 6-(1,2,3,4-tetrahydroquinolin-6-yl)−2-naphthoic acid]	43.7 ± 4.2 µM	13.9%	18.77 ± 4.8%	2.26 ± 0.4%	3.53 ± 1.3%	75.83% and 75.83 ± 6.4 %	did not show any significant increase	–	did not show any overexpression	23.44% and 23.44 ± 2.3 %	0.37%	75.13% and 75.13 ± 6.8 %	1.06 ± 0.1%	133 ± 6.8 µM	53 ± 4.9 µM	64.8 ± 5.4 µM	2420 ± 1300 nM	2.78 ± 0.3 µM	47.3 ± 6.2 µM	23.7%	intracellular IL-10 level change [18]: did not show any significant reduction; RAR protein expression (western blot) [20]: overexpression of all RARs
